Measured values reported in patent publication US20230027620A1, “PENTAPEPTIDE AND METHODS OF USE THEREOF” (THE BOARD OF TRUSTEES OF THE UNIVERSITY OF ILLINOIS, priority 2019, published 2023).
“Also recorded” adds a separate entry of the source.

Key:
[1] = test system: epithelial cell migration; assay: In vitro scratch assay, truncation and scrambled peptide series (FIG. 1; cell line not given); format: cell-based; settings: 80 μM; FIG. 1; vs untreated control
Protocol: Peptides were tested for efficacy in accelerating scratch closure rates. Negative controls included untreated and multiple scrambled peptide (SP) controls. All peptides were tested at 80 μM concentration. All experiments were performed in triplicate with three technical replicates for each experiment. Statistical significance was determined by one-way ANOYA with Dunnett's post-hoc test. *p<0.05; **p<0.01; ***p<0.001. Relative closure=(% closure of treated sample)/(% closure of Untreated control).
In Vitro Scratch Assay. HCE, HCLE, HELA and MCF-7 cells were cultured in a 24-well plate at 2.5×10^5 (cells/well) seeding density, and were grown to confluence on a 24-well plate. Subsequently, a straight-line scratch mark was made with a sterile P200 pipette tip. The cells were then washed twice with phosphate-buffered saline (PBS) to remove cellular debris. Wounded areas were then treated with the peptides provided in Table 5 at various concentrations in standard medium with reduced serum conditions (0.5% FBS in MEM medium (HCE), growth factor-free K-SFM media (HCLE), 1% FBS in DMEM medium (HeLa) and 0.5% FBS in RPMI 1640 medium (MCF-7)). Scratches were photographed microscopically at 4× magnification (Image Express Micro, Molecular Devices, San Jose, Calif.) every hour over the course of the experiment. The wound area at each time-point was measured using Image J software (Image J 1.47v, NIH, Thornwood, Bethesda, Md.). Relative wound closure was calculated by dividing the closure of the treated wound by that of the untreated wound. For all the experiments including truncated histatin-5, a final concentration of 80 μM was used. PD98059 (Calbiochem, San Diego, Calif.) at final concentration of 50 μM was used as a specific inhibitor of MEK. PD98059 was added to cell cultures at the same time as histatin peptides.
To identify the residues of Hst5 required for epithelial cell migration, serial truncation experiments were performed, progressively deleting residues in Hst5. […] All peptides were tested at 80 μM. […] Thus, the SHRGY (SEQ ID NO:2) sequence is necessary and sufficient to promote epithelial migration rates in in vitro scratch assays.

p-ERK1/2 = assay: Immunofluorescence imaging of p-ERK1/2 in scratched HCE monolayer; format: cell-based, Human; settings: 80 μM, 45 minutes
Protocol: Immunofluorescence Imaging. HCE cells were seeded in 8-well chamber slide at 9×10^4 (cells/well) seeding density, and allowed to incubate to form a confluent monolayer. Subsequently, a straight-line scratch mark was made with a sterile P10 pipette tip. The cells were then washed with media to remove cellular debris. Wounded areas were subsequently left untreated or treated with Hst5, SP1 or SP2 at 80 μM concentrations in MEM media with 0.5% FBS for 45 minutes. Cells were then fixed with 4% paraformaldehyde for 30 minutes and permeabilized with 0.1% Triton X-100 for 5 minutes. After washing with PBS, cells were incubated at room temperature for 30 minutes with 5% bovine serum albumin (BSA) and 5% normal goat serum in PBS. Cells were subsequently incubated with primary antibodies diluted in 1% BSA against p-ERK1/2 (1:200) (Cell Signaling, Danver, Mass.) at 4° C. for 16 hours. After three washings with PBS, cells were incubated with fluorescein isothiocyanate-conjugated sheep anti-rabbit IgG antibody (BD Biosciences, San Jose, Calif.) (1:500) diluted in 1% BSA at room temperature for 60 minutes. After extensive washing with PBS, the cells were then stained with 4′,6-diamidino-2-phenylindole (DAPI; (Roche, Mannheim, GE) for 2 minutes for nuclear staining. The cells were mounted in Fluoro gel with Tris buffer (Electron Microscopy Sciences, Hattfield, Pa.) and observed under a confocal microscope (Zeiss LSM 710 Confocal Microscope, Oberkochen, Germany) using a 10× objective.
The level of activation/phosphorylation of ERK with and without wounding and with and without Hst5 application were investigated to determine whether the cellular signaling pathways underpinning the pro-migratory effects of Hst5 were similar to those of Hst1 in other epithelial cell types. Wounding causes an increased in phosphorylated form of ERK1/2 (p-ERK1/2). Immunolocalization was used to determine whether Hst5 application to a scratched sheet of epithelium would affect pERK1/2 levels.

HCLE cells = assay: In vitro scratch assay, HCLE cells; format: cell-based, Human
Protocol: Cell Culture. Human corneal limbal epithelial (HCLE) cells were cultured in keratinocyte-serum free medium (K-SFM; ThermoScientific, Waltham, Mass.) supplemented with 0.2 ng/mL rhEGF (ThermoScientific, Waltham, Mass.), bovine pituitary extract (ThermoScientific, Waltham, Mass.) and 1% Amphotericin B (ThermoScientific, Waltham, Mass.). Standard cell culture conditions (37° C., 5% CO2, >95% humidity) were used during routine passages. The culture medium was replaced every 48 hours after seeding.
In Vitro Scratch Assay. HCE, HCLE, HELA and MCF-7 cells were cultured in a 24-well plate at 2.5×10^5 (cells/well) seeding density, and were grown to confluence on a 24-well plate. Subsequently, a straight-line scratch mark was made with a sterile P200 pipette tip. […] The wound area at each time-point was measured using Image J software (Image J 1.47v, NIH, Thornwood, Bethesda, Md.). Relative wound closure was calculated by dividing the closure of the treated wound by that of the untreated wound. […]
A cell sprouting assay using HCE cells embedded as a spot in growth factor reduced solubilized basement membrane sold under the tradename MATRIGEL® (Corning Life Sciences, Tewksbury, Mass.) was used to determine if HST5 could promote epithelial cell migration. […] Time-lapse microscopy was performed and wound areas were analyzed at different time points. […]

HCE cells = assay: Cell sprouting assay, HCE cells embedded in MATRIGEL; format: cell-based, Human; settings: 50 μM, 72 hours, compared to vehicle only control
Protocol: Cell Sprouting Assay. A cell sprouting assay was performed using HCE cells in a solubilized basement membrane sold under the tradename MATRIGEL® (reduced and diluted in MEM 1:1; Corning Life Sciences, Tewksbury, Mass.). HCE cells were embedded in the solubilized basement membrane at 5×10^5 cells/10 μL spot. The cell spotted plates were then exposed to reduced serum media (0.5% FBS) (untreated negative control), Hst5 (50 μM), or 10% FBS (positive control). HCE cell migration was then followed with time lapse microscopy and imaged at 4× (Image Express Micro; Molecular Devices, CA). Cell covered area at a given time point was measured using Image J.
A cell sprouting assay using HCE cells embedded as a spot in growth factor reduced solubilized basement membrane sold under the tradename MATRIGEL® (Corning Life Sciences, Tewksbury, Mass.) was used to determine if HST5 could promote epithelial cell migration. […] A standardized scratch assay using the HCLE cell line tested the effects of Hst5 on cell migration. HCLE cells were grown to confluence and mechanically scratched using a pipette tip. Cells were treated with different concentrations (20, 50, 80 and 100 μM) of Hst5 or left untreated as a control. Time-lapse microscopy was performed and wound areas were analyzed at different time points. […] The most significant increase in scratch closure rates was noticed at 50 μM. […]

With DSHAKRHHGYKRKFHEKHHSHRGY [Hst5] the “scratch (wound) closure rates, relative closure” value [1] was “significant increases in scratch closure rates”, the “pERK1/2 immunolocalization / signal intensity” value (p-ERK1/2) was “increased signal intensity of phosphorylated ERK1/2; also recorded: elevated immunolocalization of pERK1/2” and the “rates of in vitro scratch assay closure” value (HCLE cells; 20, 50, 80 and 100 μM, compared with untreated control) was “dose-dependent increase in rates of in vitro scratch assay closure”. The “concentration of most significant increase in scratch closure rates” value (HCLE cells; tested at 20, 50, 80 and 100 μM) was 50 µM and the “cell migration (cell sprouting)” value (HCE cells) was “statistically significant increase in cell migration”.
